Results: PubChem BioAssay AID1389 (Sanford-Burnham Center for Chemical Genomics, 2008)
Active and inactive are the calls of the source.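 The calls were made as follows: active = no visible ATF-4 stress protein band on the western blot after compound pretreatment and chemical ER stress; inactive = the rest.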

Tested on: CSM14.1 cells, thapsigargin-induced ATF-4 Western blot
Experiment: ER stress ATF-4 upregulation inhibition – CSM14.1 cells, thapsigargin, Western blot, mechanism study for ER stress cell death inhibitors, late-stage follow-up (AID 1389)

COc1ccc(C2CC(=O)C3=C(C2)Nc2ccccc2NC3c2cccc(Br)c2)cc1OC (stereo unspecified)
outcome: inactive

CCOc1cccc(C2Nc3ccccc3NC3=C2C(=O)CC(c2ccc(OC)cc2)C3)c1 (stereo unspecified)
outcome: inactive

COc1ccc(C2CC(=O)C3=C(C2)Nc2ccccc2NC3c2cccc(C(F)(F)F)c2)cc1OC (stereo unspecified)
outcome: inactive

CCOc1cc(C2Nc3ccccc3NC3=C2C(=O)CC(c2ccc(OC)cc2)C3)cc(Cl)c1O (stereo unspecified)
outcome: inactive

O=C1CC(c2ccccc2)CC2=C1C(c1c(F)cccc1Cl)Nc1ccccc1N2 (stereo unspecified)
outcome: inactive

CSc1ccc(C2Nc3ccccc3NC3=C2C(=O)CC(c2ccccc2)C3)cc1 (stereo unspecified)
outcome: inactive

COc1ccc(C2CC(=O)C3=C(C2)Nc2ccccc2NC3c2cccc(Oc3ccccc3)c2)cc1OC (stereo unspecified)
outcome: inactive

CCCOc1ccc(C2Nc3ccccc3NC3=C2C(=O)CC(c2ccc(OC)c(OC)c2)C3)cc1 (stereo unspecified)
outcome: active

COc1ccc(C2CC(=O)C3=C(C2)Nc2ccccc2NC3c2cc(C)ccc2C)cc1 (stereo unspecified)
outcome: active

COc1ccc(C2CC(=O)C3=C(C2)Nc2ccccc2NC3c2ccccc2C(F)(F)F)cc1OC (stereo unspecified)
outcome: inactive

CC1(C)CC(=O)C2=C(C1)Nc1ccccc1NC2c1ccc(-c2ccccc2)cc1 (stereo unspecified)
outcome: inactive
